Experiment [1] has as its system MCF-7 breast cancer cells. As to the kind of experiment: Cell migration/invasion assay through a HUVEC monolayer, MCF-7. It is filed as cell-based, human. Conditions: peptide 10 μM, re-applied every 2 hours for 10 hours. The source says:
(§1) FIGS. 14A and 14B are bar graphs showing the efficacy of TAT carrier peptide (TAT), αV5-3-TAT peptide (Alpha), βIIV5-3 peptide (Beta-2), and εV1-2 (Epsilon) in inhibiting the invasion of human MDA-MB-231 and MCF-7 breast cancer cells through a HUVEC monolayer. FIGS. 14C and 14D are bar graphs showing the efficacy of TAT carrier peptide (TAT) or αV5-3-TAT peptide in inhibiting the invasion of 4T1 (FIG. 11C) and MDA-MB-231 (FIG. 11D) cells.
FIGS. 14A and 14B show the results of a related experiment measuring the efficacy of TAT carrier peptide (TAT), αV5-3-TAT peptide (Alpha), βIIV5-3 peptide (Beta-2), and εV1-2 peptide (Epsilon) in inhibiting the invasion of human MDA-MB-231 and MCF-7 breast cancer cells through a HUVEC monolayer. […]
Cell Migration/invasion assay: Primary human endothelial cells (HUVEC's) were plated on top of a matrigel plug in trans-well plates. Once the cells had reached confluence (as determined by examination of a control well), 1×10^6 human breast cancer cells (MCF-7 or MDA-MB-231) expressing luciferase were added above the HUVEC cell layer. […] The relative numbers of cancer cells that had crossed the HUVEC cell layer and entered the matrigel was then determined by bioluminescence detection of luciferase action following addition of luciferin substrate.

The subject of experiment [2] is MCF-7 breast cancer cells. As to the kind of experiment: Wound healing (migration) assay, MCF-7. Conditions: peptide 1 uM, re-applied every 2 h for 8 h. It is filed as cell-based, human. The method, then: FIGS. 13A-13D are micrographs showing the efficacy of TAT carrier peptide (TAT; FIG. 13A), αV5-3-TAT peptide (Alpha; FIG. 13B), βIIV5-3 peptide (Beta2; FIG. 13C), and εV1-2 (epsilon; FIG. 13D) on human MCF-7 breast cancer cell migration.
(§2) To investigate the role of PKC inhibitors in reducing the migration of tumor cells, in vitro migration assays were performed using MDA-MB-231 breast cancer cells (FIGS. 12A-12D), MCF-7 breast cancer cell (FIGS. 13A-13D), JC cells (FIGS. 15A-15D), and 4T1 cells (FIGS. 16A-16D), in the presence of TAT carrier peptide (TAT), αV5-3-TAT peptide (Alpha), βIIV5-3 peptide (Beta2), or εV1-2 peptide (Epsilon).
(§3) Wound healing assay: Human or mouse breast cancer cell lines were grown in 6-well plates until about 90% confluent. Cells were then grown in serum free media overnight, before media was changed to media +1% FBS and peptide PKC inhibitors added (1 uM), at the same time a pipette tip was drawn across the cell layer to create a scrape ‘wound’. PKC inhibitors were re-applied every 2 h for a total of 8 h, before cells were left for a further 12 h and then the scrape was examined under phase contrast microscopy.

The test system of experiment [3] is MDA-MB-231 breast cancer cells. As to the kind of experiment: Wound healing (migration) assay, MDA-MB-231. Conditions: peptide 1 uM, re-applied every 2 h for 8 h. It is filed as cell-based, human. As to the method: FIGS. 12A-12D are micrographs showing the efficacy of TAT carrier peptide (TAT; FIG. 12A), αV5-3-TAT peptide (Alpha; FIG. 12B), βIIV5-3 peptide (Beta2; FIG. 12C), and εV1-2 (Epsilon; FIG. 12D) on human MDA-MB-231 breast cancer cell migration.
as §2, §3

Experiment [4] has as its system JC cells. Description: Wound healing (migration) assay, JC. It is filed as cell-based, mouse. The settings on record: peptide 1 uM, re-applied every 2 h for 8 h. The method, then:
FIGS. 15A-15D are micrographs showing the efficacy of TAT carrier peptide (TAT; FIG. 15A), αV5-3-TAT peptide (Alpha; FIG. 15B), βIIV5-3 peptide (Beta2; FIG. 15C), and εV1-2 (Epsilon; FIG. 15D) on JC cell migration.
as §2, §3

Experiment [5] concerns 4T1 tumor cells. As to the kind of experiment: Growth of primary tumors in vivo (number of tumor cells at primary site of injection). The arrangement: species or system mice. Conditions: animals injected with 4T1 tumor cells, FIG. 6A, versus saline. The method, then:
FIG. 6A is a bar graph showing the affect of saline, the αV5-3-TAT conjugate peptide (αPKC), or the βIIV5-3-TAT conjugate peptide (βPKC) on the growth rate of primary tumors in vivo.
To determine if the effects observed with the α and βIIPKC peptide inhibitors was due to a decrease in metastasis as opposed to a decrease in primary tumor growth, animals injected with 4T1 tumor cells were treated with saline, the αV5-3-TAT conjugate peptide (αPKC), or the βIIV5-3-TAT conjugate peptide (βPKC) and the number of tumors cells at the primary site of injection were determined.

In experiment [6] the test system is MDA-MB-231 breast cancer cells. Description: Cell migration/invasion assay through a HUVEC monolayer, MDA-MB-231. It is filed as cell-based, human. Conditions: peptide 10 μM, re-applied every 2 hours for 10 hours.
Description: as §1
FIGS. 14A and 14B show the results of a related experiment measuring the efficacy of TAT carrier peptide (TAT), αV5-3-TAT peptide (Alpha), βIIV5-3 peptide (Beta-2), and εV1-2 peptide (Epsilon) in inhibiting the invasion of human MDA-MB-231 and MCF-7 breast cancer cells through a HUVEC monolayer. FIGS. 14C and 14D show the results of a similar experiment showing the efficacy of TAT carrier peptide (TAT) or αV5-3-TAT peptide in inhibiting the invasion of 4T1 (FIG. 11C) and MDA-MB-231 (FIG. 11D) cells.
Cell Migration/invasion assay: Primary human endothelial cells (HUVEC's) were plated on top of a matrigel plug in trans-well plates. Once the cells had reached confluence (as determined by examination of a control well), 1×10^6 human breast cancer cells (MCF-7 or MDA-MB-231) expressing luciferase were added above the HUVEC cell layer. Where applicable, peptides were added to a final concentration of 10 μM and re-applied every 2 hours for 10 hours followed by further incubation. After 24-48 hours-incubation the HUVEC cell layer (and all other cells above the matrigel) were removed by scraping of the cell layer into the media and aspiration (repeated 3 times). The relative numbers of cancer cells that had crossed the HUVEC cell layer and entered the matrigel was then determined by bioluminescence detection of luciferase action following addition of luciferin substrate.

In experiment [7] the target is T1, βIIPKC (Mus musculus, UniProt P68404).
T1 construct: endogenous in cells; host or cells: 4T1 murine mammary tumour cells grown as tumours in Balb/c mice
T1 sequence (P68404 1-673 isoform P68404-2): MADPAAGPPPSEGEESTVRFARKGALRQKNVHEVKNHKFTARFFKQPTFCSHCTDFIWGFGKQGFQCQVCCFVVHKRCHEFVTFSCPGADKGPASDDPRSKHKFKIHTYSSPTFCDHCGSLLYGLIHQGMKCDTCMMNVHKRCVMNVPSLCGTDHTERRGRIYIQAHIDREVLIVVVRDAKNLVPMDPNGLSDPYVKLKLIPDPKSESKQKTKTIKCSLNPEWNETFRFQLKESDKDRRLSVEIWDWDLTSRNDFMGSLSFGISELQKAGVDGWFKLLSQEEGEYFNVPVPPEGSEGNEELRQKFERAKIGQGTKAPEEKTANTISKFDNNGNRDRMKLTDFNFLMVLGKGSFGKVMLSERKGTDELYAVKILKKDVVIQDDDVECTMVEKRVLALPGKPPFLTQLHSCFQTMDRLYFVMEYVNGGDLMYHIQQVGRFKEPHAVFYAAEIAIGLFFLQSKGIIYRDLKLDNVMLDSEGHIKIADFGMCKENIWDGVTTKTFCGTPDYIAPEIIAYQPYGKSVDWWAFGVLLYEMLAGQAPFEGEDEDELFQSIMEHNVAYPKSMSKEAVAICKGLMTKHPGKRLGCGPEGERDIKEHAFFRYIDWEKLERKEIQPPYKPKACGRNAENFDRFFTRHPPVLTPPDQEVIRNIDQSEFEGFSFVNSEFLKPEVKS
As to the kind of experiment: Translocation of βIIPKC in tumor cells (immunoblot of cytosol and particulate fractions). The settings on record: FIG. 5B. It is filed as in vivo. The method, then:
FIGS. 5A-5B are bar graphs showing the percentage of translocation of αPKC (FIG. 5A) and βIIPKC (FIG. 5B) […] in tumor cells treated with αV5-3-TAT peptide.
To further characterize inhibition of metastasis using the α and βIIPKC inhibitors, the percentage of translocation of αPKC (FIG. 5A) and βIIPKC (FIG. 5B), […] was measured.

Experiment [8] relates to 4T1 murine mammary cancer cells. Description: Lung metastasis of luciferase-tagged 4T1 tumors in mice, imaging (relative light units). It is filed as in vivo. The settings on record: 4T1-luciferase tumor-bearing mice, osmotic pump, about 35 mg/kg/day, four weeks. As to the method: To determine whether specific PKC inhibitors could reduce the amount of PKC translocation/activation in vivo and thereby reduce tumor cell metastasis, animals were administered an αPKC peptide inhibitor, or appropriate control, via an implanted osmotic pump, following the injection of luciferase-tagged tumor cells. […] The data are summarized in the bar graph shown in FIG. 4, along with similar data relating to the use of a βIIV5-3-TAT conjugate peptide (βPKC; SEQ ID NO: 27). The extent of lung metastasis is expressed as relative light units.
Balb/c female mice (6 weeks old) were injected semi-orthotopically with 4T1 murine mammary cancer cells tagged with luciferase ([…] cells/100 μL). One week later, an osmotic minipump was implanted subcutaneously in each animal, for delivery of saline (control), TAT peptide (control, YGRKKRRQRRR, SEQ ID NO: 25), the peptide inhibitor αV5-3 (QLVIAN, SEQ ID NO: 6) attached via an N-terminal disulfide bond to TAT peptide (YGRKKRRQRRR-CC-QLVIAN, SEQ ID NO: 26).
In other experiments, the peptide inhibitor βIIV5-3 (QEVIAN, SEQ ID NO: 13) or εV1-2 (EAVSLKPT, SEQ ID NO: 20) is attached via an N-terminal disulfide bond to the TAT peptide (SEQ ID NOs: 27 and 28, respectively). The TAT control, αV5-3-TAT, βIIV5-3-TAT, or εV1-2-TAT conjugate peptides are administered at about 35 mg/kg/day for two and four weeks.
After two weeks of treatment with αV5-3-TAT, some animals were selected form imaging (IVIS® 29, Xenogen Corporation, Alameda, Calif.) and analysis, with the remaining animals imaged after four weeks of treatment.
FIG. 4 is a bar graph showing the extent of lung metastasis, expressed as relative light units (based on imaging as exemplified in FIG. 3), in tumor-bearing mice treated for four weeks with saline, the αV5-3-TAT conjugate peptide (αPKC), or the βIIV5-3-TAT conjugate peptide (βPKC). The extent of lung metastasis, quantified approximately by the relative light units, for mice treated with saline, the αPKC inhibitor, and the βIIV5-3 PKC inhibitor peptide is shown. The extent of lung metastases is reduced in the animals treated with the αPKC inhibitor.

Bridges are numbered along the chain shown (N, C = ends). Where no end group is shown, it is not given here.

As for “YGRKKRRQRRR-CC-CGRNAE (YGRKKRRQRRRCCCGRNAE; disulfide (positions not given here); also: TAT conjugated via disulfide, Cys pair not given here) [βIIV5-3-TAT]”, the “invasion of MCF-7 cells through a HUVEC monolayer” value in experiment [1] was “reduced migration and invasion”. Moreover, the “migration of MCF-7 breast cancer cells” value in experiment [2] (listed as βIIPKC inhibitor) was “reduced migration and invasion”; in experiment [2] (listed as βIIV5-3 peptide) it was “reduced”. Besides, the “migration of MDA-MB-231 breast cancer cells” value in experiment [3] (listed as βIIPKC inhibitor) was “reduced migration and invasion”; in experiment [3] (listed as βIIV5-3 peptide), “reduced”. Moreover, the “migration of JC cells” value in experiment [4] was “reduced”. Moreover, the “reduction in the number of cells at the primary tumor site” value in experiment [5] was “no reduction”. The “invasion of MDA-MB-231 cells through a HUVEC monolayer” value in experiment [6] was “reduced migration and invasion”. Also, the “reduction of βIIPKC translocation” value in experiment [7] was “did not significantly reduce”. The results for the “effect on lung metastasis compared to control animals (in words)” value in experiment [8] and in experiment [8] (listed as βPKC inhibitor) were “less pronounced effect” and “about half”, respectively.
As for “YGRKKRRQRRR-CC-EAVSLKPT (YGRKKRRQRRRCCEAVSLKPT; disulfide 12-13 (inferred)) [εV1-2-TAT]”, the “invasion of MCF-7 cells through a HUVEC monolayer” value in experiment [1] is “reduce invasion”. In addition, the “invasion of MDA-MB-231 cells through a HUVEC monolayer” value in experiment [6] is listed as “reduce invasion”.

The values above are taken from US20090137493A1, “Inhibition of tumor metastases using protein kinase C (PKC) inhibitors” (priority 2007, published 2009).
